Reference: patent US5780642A, “Imidazole derivatives as therapeutic agents” (KNOLL Aktiengesellschaft, priority 1993, dated 1998)
pIC50: −log10 of the molar value. Counter-ions that a name gives are not always drawn.

test system: Zymosan Stimulated Macrophages (arachidonic acid release); experiment: Test A: Inhibition of Arachidonic Acid Release from Zymosan Stimulated Macrophages; type: cell-based, mouse (female MF1 mice); settings: Mus musculus, Macrophage, inhibition of arachidonic acid release, zymosan stimulated mouse peritoneal macrophages; tested at 100, 50, 20, 10, 5 and 1 μM; ≤100 μM considered active; read-out: Test A IC50
Procedure: Test A was carried out in the following way:
Inhibition of Arachidonic Acid Release from Zymosan Stimulated Macrophages
Female MF1 mice (weighing 20 to 25 g) were killed using a rising concentration of CO2. The mice were laid on their backs and the abdomens wiped with 70% alcohol. The skin was pulled back, exposing the peritoneal wall. Medium A (5 ml) (see below) was injected into the peritoneal cavity of each mouse followed by approximately 1 ml of air using a 20 ml syringe and a 21G×40 mm needle in order to form a suspension of macrophage cells. The medium and cells were then removed using a 19G×40 mm needle. The resulting suspension was returned to a sterile beaker kept on ice. The extracts from all the mice were pooled and this pooled cell suspension was counted using a Coulter counter and adjusted to a final cell count of 1-1.3×10^6 cells/ml prior to labelling with [^3 H]-arachidonic acid. Typically five mice provided sufficient cells for each multiwell plate.
Sufficient [^3 H]-arachidonic acid in ethanol to give a final concentration of 1.6 μCi/ml (equivalent to 40 μCi/plate) was blown to dryness under nitrogen. The arachidonic acid was then resuspended in 1 or 2 ml of the cell suspension which was then mixed with the remainder of the cell suspension in a centrifuge bottle. The labelled cell suspension was then plated out into sterile plastic 96 flat-bottomed well plates (250 μl per well) and incubated overnight at 37° C. in a moist atmosphere of 5% CO2, 95% air.
The following day, non-adherent cells were removed by washing 3 times with sterile phosphate buffered saline (PBS). The adherent peritoneal macrophages were then cultured for a further 24 hours in the presence or absence of drugs, in medium B (see below) at 37° in a 5% CO2 atmosphere in order to measure the effects of drugs on the spontaneous release of arachidonic acid in the absence of stimulus. After this incubation, supernatants were removed to give media 1 and stored in sealed multi-well plates at 4° C. prior to scintillation counting. Drugs which potentiated spontaneous release of arachidonic acid (125% of controls) were deemed to be toxic at the concentration at which this phenomenon occurred. The supernatants were replaced by fresh medium C containing fresh drug and a stimulus. Three drugs were tested at six concentrations (100, 50, 20, 10, 5 and 1 μM) in replicates of four on each plate. The other wells contained controls consisting of a positive control (e.g. dexamethasone), medium (B) only and medium C only.
Incubation was then continued for a further 5 hours, whereupon the supernatants were collected to give media 2 and the adherent cells washed with PBS. The cells were then lysed with 100 μl of 0.1% TRITON® X100 in a 0.1% solution of bovine serum albumin in 0.9% saline and mechanically disrupted to give cell lysates. These supernatants (media 2) and cell lysates (Cells) were also stored in sealed multi-well plates at 4° C. prior to scintillation counting. 200 μl aliquots of media, or 100 μl aliquots of cells were counted using 2 ml of OPTIPHASE "HIGH SAFE" (Trademark of LKB) as scintillant.
The percentage of arachidonic acid released was calculated using the mean values for each group of 4 wells in the following equation. [formula]
The value for the arachidonic acid release in the absence of stimulus (spontaneous, cpm of media 2) from cells which had been exposed to neither stimulus nor drug was subtracted from all equivalent values (cpm media 2, stimulated with or without drug) to give the net stimulated release. The percentage inhibition of arachidonic acid release caused by a drug may then be calculated using the following equation. [formula]
Compounds of formula I were tested at six concentrations (100, 50, 20, 10, 5 and 1 μM) and IC50 values calculated. Compounds with IC50 values≤100 μM are considered to be active. Advantageous compounds have an IC50 value<50 μM.
Medium A (for peritoneal lavage) […]

pIC50	SMILES
4.15	CC(C)(NCCCn1ccnc1)c1ccc(CCOCc2ccccc2)cc1 [Example 27, N-{1-[4-(2-Benzyloxyethyl)phenyl]-1-methylethyl}-3-(imidazol-1-yl)propylamine]
4.60	CC(C)(NCCCn1ccnc1)c1ccc(C(=O)NC2CCCCC2)cc1 [Example 28, N-Cyclohexyl-4-{1-[3-(imidazol-1-yl)propylamino]-1-methylethyl}benzamide]
4.70	CC(C)(NCCCn1ccnc1)c1ccc(CC(=O)NCc2ccc(Cl)cc2)cc1 [Example 30, N-(4-Chlorobenzyl)-4-{1-[3-(imidazol-1-yl)propylamino]-1-methylethyl}phenylacetamide]
4.13	N#Cc1ccc(OCCNCCCn2ccnc2)cc1 [Example 31, 4-{2-[3-(Imidazol-1-yl)propylamino]ethoxy}benzonitrile sesquihydrochloride]
5.05	Clc1ccc(C2(CCNCCCn3ccnc3)OCCO2)cc1 [Example 32, N-{2-[2-(4-Chlorophenyl)-1,3-dioxolan-2-yl]ethyl}-3-(imidazol-1-yl)propylamine]
4.49	CSc1ccc(OCC(C)(C)NCCCn2ccnc2)cc1 [Example 33, N-[1,1-Dimethyl-2-(4-methylthiophenoxy)ethyl]-3-(imidazol-1-yl)propylamine dihydrochloride hydrate]
4.12	CCCC(CCC)(NCCCn1ccnc1)c1ccc(CC(=O)NC)cc1 [Example 34, 4-{1-[3-(Imidazol-1-yl)propylamino]-1-propylbutyl)phenyl-N-methylacetamide]
4.33	CC(C)(COc1ccccc1)NCCCn1ccnc1 [Example 35, 3-(Imidazol-1-yl)-N-(1,1-dimethyl-2-phenoxyethyl) propylamine]
4.22	COc1ccccc1CCC(C)(C)NCCCn1ccnc1 [Example 36, 3'-(Imidazol-1-yl)-3-(2-methoxyphenyl)-1,1-dimethyldipropylamine]
4.31	CC(C)(NCCCn1ccnc1)c1ccc(CC(=O)NC2CCCCCC2)cc1 [Example 37, N-Cycloheptyl-4-{1-[3-(imidazol-1-yl)propylamino]-1-methylethyl}phenylacetamide]
6.70	CC(C)(COc1ccc(C(F)(F)F)cc1)NCCCn1ccnc1 [Example 39, N-{2-[4-(Trifluoromethyl)phenoxy]-1,1-dimethylethyl}-3-(imidazol-1-yl)propylamine dimaleate]
6.52	CC(C)(COc1ccc(F)cc1)NCCCn1ccnc1 [Example 40, N-[2-(4-Fluorophenoxy)-1,1-dimethylethyl]-3-(imidazol-1-yl)propylamine dimaleate hemihydrate]
5.00	CCC(CC)(CO)c1ccc(C(C)(C)NCCCn2ccnc2)cc1 [Example 41, 2-Ethyl-2(4-{1-[3-(imidazol-1-yl)propylamino]-1-methylethyl}phenyl)butan-1-ol]
5.05	COc1ccc(S(=O)(=O)NCCc2ccc(C(C)(C)NCCCn3ccnc3)cc2)cc1 [Example 42, N-[2-(4-{1-[3-(Imidazol-1-yl)propylamino]-1-methylethyl}phenyl)ethyl]-4-methoxybenzenesulphonamide]
3.92	CCC(CC)(NCC(O)Cn1ccnc1)c1ccccc1 (stereo not drawn) [Example 44, 1-(1-Ethyl-1-phenylpropylamino)-3-(imidazol-1-yl)-propan-2-ol]
4.19	CCCCCCNC(=O)Cc1ccc(C(C)(C)NCC(O)Cn2ccnc2)cc1 (stereo not drawn) [Example 47, N-Hexyl-4-{1-[2-hydroxy-3-(imidazol-1-yl)propylamino]-1-methylethyl}phenylacetamide]

pIC50	SMILES
4.15	CC(C)(NCC(O)Cn1ccnc1)c1ccc(C(=O)NC2CCCCC2)cc1 (stereo not drawn) [Example 48, N-Cyclohexyl-4-{1-[2-hydroxy-3-(imidazol-1-yl)propylamino]-1-methylethyl}benzamide]
4.15	CC1(C)COC(c2ccc(C(C)(C)NCC(O)Cn3ccnc3)cc2)=N1 (stereo not drawn) [Example 49, 1-{1-[4-(4,4-Dimethyl-2-oxazolin-2-yl)phenyl]-1-methylethylamino}-3-(imidazol-1-yl)propan-2-ol hemihydrate]
4.06	CSc1ccc(OCC(C)(C)NCC(O)Cn2ccnc2)cc1 (stereo not drawn) [Example 51, 3-(Imidazol-1-yl)-1-[2-(4-methylthiophenoxy)-1,1-dimethylethylamino]propan-2-ol]
4.64	CC(C)(COc1ccc(Cl)cc1)NCC(O)Cn1ccnc1 (stereo not drawn) [Example 52, 1-[2-(4-Chlorophenoxy)-1,1-dimethylethylamino]-3-(imidazol-1-yl)propan-2-ol]
4.00	CC(C)(COc1ccccc1)NCC(O)Cn1ccnc1 (stereo not drawn) [Example 53, 3-(Imidazol-1-yl)-1-(2-phenoxy-1,1-dimethylethylamino) propan-2-ol]
5.15	CC(C)(NCCCn1cnc(CCNS(=O)(=O)c2ccccc2)c1)c1ccc(Cl)cc1 [Example 54, N-[2-(1-{3-[1-(4-chlorophenyl)-1-methylethylamino]-propyl}imidazol-4-yl)ethyl]benzenesulphonamide]
5.15	CC(C)(NCCCn1cnc(CCNC(=O)c2ccccc2)c1)c1ccc(Cl)cc1 [Example 55, N-[2-(1-(3-[1-(4-chlorophenyl)-1-methylethylamino]propyl}imidazol-4-yl)ethyl]benzamide]
4.68	CC(C)(NCCCn1ccnc1)c1ccc(CCNC(=O)c2ccccc2)cc1 [Example 57, N-[2-(4-{1-[3-(imidazol-1-yl)propylamino]-1-methylethyl}phenyl)-ethyl]benzamide]
4.70	CCCCNC(=O)NCCc1ccc(C(C)(C)NCCCn2ccnc2)cc1 [Example 58, N-butyl-N'-[2-(4-{1-[3-(imidazol-1-yl)propylamino]-1-methylethyl}phenyl)ethyl]urea]
5.05	CCC(CC)(NCCCn1cnc(CCNC(=O)c2ccc(OC)cc2)c1)c1ccccc1 [Example 61, N-(2-{1-[3-(1-ethyl-1-phenylpropylamino)propyl]-imidazol-4-yl}ethyl)-4-methoxybenzamide]
4.85	CCC(CC)(NCCCn1cnc(CCNC(=O)c2ccc(C#N)cc2)c1)c1ccccc1 [Example 62, 4-cyano-N-(2-{1-[3-(1-ethyl-1-phenylpropylamino)propyl]imidazol-4-yl}ethyl)benzamide]
4.85	CC(C)(NCC(O)Cn1cnc(CCNC(=O)c2ccccc2)c1)c1ccc(Cl)cc1 (stereo not drawn) [Example 63, N-[2-(1-{3-[1-(4-chlorophenyl)-1-methylethylamino]-2-hydroxypropyl}imidazol-4-yl)ethyl]benzamide]
4.06	COC(=O)CN(CCCn1ccnc1)CCOc1ccc(Cl)cc1 [Example 65, methyl N-[2-(4-chlorophenoxy)ethyl]-N-[3-(imidazol-1-yl)propyl]glycinate]
4.62	OCCN(CCCn1ccnc1)CCOc1ccc(Cl)cc1 [Example 66, 2-{N-[2-(4-chlorophenoxy)ethyl]-N-[3-(imidazol-1-yl)propyl]amino}ethanol]
4.70	CCCCS(=O)(=O)Oc1ccc(OCCNCCCn2ccnc2)cc1 [Example 67, 4-{2-[3-(imidazol-1-yl)propylamino]ethoxy}phenyl 1-butane sulphonate]
4.00	CC(C)(C[S+]([O-])c1ccc(Cl)cc1)NCCCn1ccnc1 (stereo not drawn) [Example 68, N-[2-(4-chlorophenylsulphinyl)-1,1-dimethylethyl]-3-(imidazol-1-yl)propylamine dihydrochloride]

same assay, conditions: Mus musculus, Macrophage, read-out: Test A IC50

SMILES	pIC50
CC(C)(NCCCn1ccnc1)c1ccc(-c2ccc(O)cc2)cc1 [Example 59, 4'-{1-[3-(imidazol-1-yl)propylamino]-1-methylethyl}biphenyl-4-ol]	5.10
